Reference: patent publication US5294611A, “Angiotensin II receptor blocking 2,3,6 substituted quinazolinones” (American Cyanamid Company, priority 1993, dated 1994)
Like-named read-outs stand apart in the source and are kept apart here.

Tested on: Angiotensin II (AII) vasopressor response
Assay: AII Challenge: antagonism of angiotensin II vasopressor response in conscious spontaneously hypertensive rats
Type: in vivo, rat (male okamoto-Aoki SHR)
Settings: for inhibition in vivo at 3 mg/kg: Rattus norvegicus, read-out: Inhibition; for inhibition in vivo at 3 mg/kg / Average Change: SHR n=2; for Change: single SHR
Description: Conscious Male okamoto-Aoki SHR, 16-20 weeks old, weighing approximately 330 g are purchased from Charles River Labs (Wilmington, Mass.). Conscious rats are restrained in a supine position with elastic tape. The area at the base of the tail is locally anesthetized by subcutaneous infiltration with 2% procaine. […] The cannula is secured, heparinized (1,000 I.U./ml), sealed and the wound is closed. The animals are placed in plastic restraining cages in an upright position. The cannula is attached to a Statham P23Db pressure transducer, and pulsatile blood pressure is recorded to 10-15 minutes with a Gould Brush recorder. […] Angiotensin II (human sequence, Sigma Chem. Co., St. Louis, Mo.) of 0.05 and 0.1 ug/kg i.v. is injected into all rats (predosing response). Then a test compound, vehicle or a known angiotensin II antagonist is administered i.v., i.p. or orally to each set of rats. […] The vasopressor response of angiotensin II is measured for the increase in systolic blood pressure in mmHg.

[1] = 3 mg/kg I.V., AII 0.05 mcg/kg IV, 30 min post dose
[2] = 3 mg/kg I.V., AII 0.05 mcg/kg IV, 60 min post dose
[3] = 3 mg/kg I.V., AII 0.05 mcg/kg IV, 90 min post dose
[4] = 3 mg/kg I.V., AII 0.1 mcg/kg IV, 30 min post dose
[5] = 3 mg/kg I.V., AII 0.1 mcg/kg IV, 60 min post dose
[6] = 3 mg/kg I.V., AII 0.1 mcg/kg IV, 90 min post dose
[7] = 3 mg/kg I.V., AII 0.1 mcg/kg IV, 120 min post dose
[8] = 3 mg/kg P.O., AII 0.1 mcg/kg IV, 180 min post dose

For `CCCCc1nc2ccc([C@@H]3[C@@H]4C(=O)OC[C@@H]4ON3Cc3ccccc3)cc2c(=O)n1Cc1ccc(-c2ccccc2-c2nnn[nH]2)cc1` (relative stereo) [Example 56], the inhibition in vivo at 3 mg/kg (iv, 0.5 h, 3 mg/kg I.V., AII 0.05 mcg/kg IV, 30 min post dose) was 100%, the inhibition in vivo at 3 mg/kg (iv, 0.5 h, 3 mg/kg I.V., AII 0.1 mcg/kg IV, 30 min post dose) was 100% and the inhibition in vivo at 3 mg/kg (iv, 1 h, 3 mg/kg I.V., AII 0.05 mcg/kg IV, 60 min post dose) was 100%. It also gave an inhibition in vivo at 3 mg/kg (iv, 1 h, 3 mg/kg I.V., AII 0.1 mcg/kg IV, 60 min post dose) of 89%, an inhibition in vivo at 3 mg/kg (iv, 2 h, 3 mg/kg I.V., AII 0.05 mcg/kg IV, 120 min post dose) of 77% and an inhibition in vivo at 3 mg/kg (iv, 2 h, 3 mg/kg I.V., AII 0.1 mcg/kg IV, 120 min post dose) of 78%. The inhibition in vivo at 3 mg/kg (iv, 3 h, 3 mg/kg I.V., AII 0.05 mcg/kg IV, 180 min post dose) was 77%, the inhibition in vivo at 3 mg/kg (iv, 3 h, 3 mg/kg I.V., AII 0.1 mcg/kg IV, 180 min post dose) was 76% and the inhibition in vivo at 3 mg/kg (iv, 4 h, 3 mg/kg I.V., AII 0.05 mcg/kg IV, 240 min post dose) was 72%. For the same molecule, the inhibition in vivo at 3 mg/kg (iv, 4 h, 3 mg/kg I.V., AII 0.1 mcg/kg IV, 240 min post dose) was 56%, the inhibition in vivo at 3 mg/kg (iv, 5 h, 3 mg/kg I.V., AII 0.05 mcg/kg IV, 300 min post dose) was 65% and the inhibition in vivo at 3 mg/kg (iv, 5 h, 3 mg/kg I.V., AII 0.1 mcg/kg IV, 300 min post dose) was 67%. It also gave an inhibition in vivo at 3 mg/kg (iv, […], 3 mg/kg I.V., AII 0.05 mcg/kg IV, 90 min post dose) of 100%, an inhibition in vivo at 3 mg/kg (iv, […], 3 mg/kg I.V., AII 0.1 mcg/kg IV, 90 min post dose) of 89% and an inhibition in vivo at 3 mg/kg (po, 0.5 h, 3 mg/kg P.O., AII 0.05 mcg/kg IV, 30 min post dose) of 31%. For the same molecule, the inhibition in vivo at 3 mg/kg (po, 0.5 h, 3 mg/kg P.O., AII 0.1 mcg/kg IV, 30 min post dose) was 11%, the inhibition in vivo at 3 mg/kg (po, 1 h, 3 mg/kg P.O., AII 0.05 mcg/kg IV, 60 min post dose) was 18% and the inhibition in vivo at 3 mg/kg (po, 1 h, 3 mg/kg P.O., AII 0.1 mcg/kg IV, 60 min post dose) was 19%. The inhibition in vivo at 3 mg/kg (po, 2 h, 3 mg/kg P.O., AII 0.05 mcg/kg IV, 120 min post dose) was 36%, the inhibition in vivo at 3 mg/kg (po, 2 h, 3 mg/kg P.O., AII 0.1 mcg/kg IV, 120 min post dose) was 27% and the inhibition in vivo at 3 mg/kg (po, 3 h, 3 mg/kg P.O., AII 0.05 mcg/kg IV, 180 min post dose) was -9%. For the same molecule, the inhibition in vivo at 3 mg/kg (po, 3 h, 3 mg/kg P.O., AII 0.1 mcg/kg IV, 180 min post dose) was 3%, the inhibition in vivo at 3 mg/kg (po, […], 3 mg/kg P.O., AII 0.05 mcg/kg IV, 90 min post dose) was 36% and the inhibition in vivo at 3 mg/kg (po, […], 3 mg/kg P.O., AII 0.1 mcg/kg IV, 90 min post dose) was 19%. The “Average Change” value [1] was 0 mmHg, the “Average Change” value [2] was 0 mmHg and the “Average Change” value [3] was 0 mmHg. The “Average Change” value (3 mg/kg I.V., AII 0.05 mcg/kg IV, 120 min post dose) was 7.5 mmHg, the “Average Change” value (3 mg/kg I.V., AII 0.05 mcg/kg IV, 180 min post dose) was 7.5 mmHg and the “Average Change” value (3 mg/kg I.V., AII 0.05 mcg/kg IV, 240 min post dose) was 9 mmHg. For the same molecule, the “Average Change” value (3 mg/kg I.V., AII 0.05 mcg/kg IV, 300 min post dose) was 11.5 mmHg, the “Average Change” value [4] was 0 mmHg and the “Average Change” value [5] was 5 mmHg. The “Average Change” value [6] was 5 mmHg, the “Average Change” value [7] was 10 mmHg and the “Average Change” value (3 mg/kg I.V., AII 0.1 mcg/kg IV, 180 min post dose) was 11 mmHg. The “Average Change” value (3 mg/kg I.V., AII 0.1 mcg/kg IV, 240 min post dose) was 20 mmHg, the “Average Change” value (3 mg/kg I.V., AII 0.1 mcg/kg IV, 300 min post dose) was 15 mmHg and the “Average Change” value (3 mg/kg P.O., AII 0.05 mcg/kg IV, 30 min post dose) was 19 mmHg. For the same molecule, the “Average Change” value (3 mg/kg P.O., AII 0.05 mcg/kg IV, 60 min post dose) was 22.5 mmHg, the “Average Change” value (3 mg/kg P.O., AII 0.05 mcg/kg IV, 90 min post dose) was 17.5 mmHg and the “Average Change” value (3 mg/kg P.O., AII 0.05 mcg/kg IV, 120 min post dose) was 17.5 mmHg. The “Average Change” value (3 mg/kg P.O., AII 0.05 mcg/kg IV, 180 min post dose) was 30 mmHg, the “Average Change” value (3 mg/kg P.O., AII 0.1 mcg/kg IV, 30 min post dose) was 27.5 mmHg and the “Average Change” value (3 mg/kg P.O., AII 0.1 mcg/kg IV, 60 min post dose) was 25 mmHg. The “Average Change” value (3 mg/kg P.O., AII 0.1 mcg/kg IV, 90 min post dose) was 25 mmHg, the “Average Change” value (3 mg/kg P.O., AII 0.1 mcg/kg IV, 120 min post dose) was 22.5 mmHg and the “Average Change” value [8] was 30 mmHg. It also gave a Change [1] of 0 mmHg, a Change [2] of 0 mmHg and a Change [3] of 0 mmHg. The Change [4] was 0 mmHg, the Change [5] was 5 mmHg and the Change [6] was 5 mmHg. It also gave a Change [7] of 10 mmHg and a Change [8] of 30 mmHg.
